# How the values were obtained:
# [1] = system: mouse B16-F10 melanoma cultured cells; assay: Hematogenous pulmonary metastasis after transplantation of mouse B16-F10 melanoma cultured cells into tail vein; type: in vivo; details: for CI (Combination Index): Median Effect Analysis, CI below 1 = synergistic
# Procedure: • (1) Preparation of mouse B16-F10 melanoma cultured cells (hereinafter simply B16-F10) B16-F10 cells (a permission to use was obtained from US M.D. Anderson Cancer Center, Dr. I. Fidler and provided for use from Japanese Foundation for cancer research·cancer chemotherapy center, Dr. […] For experiment, B16-F10 cells were suspended in MEM at 5×10^5 cells/mL and 0.2 mL thereof was transferred into the tail vein of 8-week-old male C57BL/6 mice (8 per group). […] Alzet, model 1002, flow rate […], for use for 14 days), and the osmotic pump was intraperitoneally transplanted into the mice one day before the transplantation of B16-F10 cells. • (3) As regards cisplatin, a preparation for injection (product name: Randa injection) was diluted with physiological saline and intraperitoneally administered once the day after transplantation of B16-F10 cells. As regards etoposide, a preparation for injection (product name: […] injection) was diluted with physiological saline and repeatedly administered intraperitoneally once a day for 5 days starting from one day after transplantation of B16-F10 cells. Paclitaxel was purchased from Sigma chemicals Co., suspended in 0.5% metolose solution and repeatedly administered intraperitoneally once every other day (3 times/week for 2 weeks) starting from one day after transplantation of B16-F10 cells. […] In addition, the values of combination index (CI) of the action in concomitant use analyzed by Median Effect Analysis (References and [2]) with regard to the combination group of the compound of the present invention and the anticancer agent are summarized in Table 3 and Table 6.
# [2] = system: Mouse melanoma B16-F10 cells; assay: Measurement of cell growth activity (MTT), in vitro growth of B16-F10 cells; type: cell-based; details: for CI (Combination Index): median effect analysis; for average growth suppression rate ± standard error: MTT
# Procedure: Mouse melanoma B16-F10 cells (the aforementioned) were cultured in MEM supplemented with 2 mM L-glutamine, 1 mM MEM non-essential amino acids, 1% MEM vitamins, 1 mM pyruvic acid and 5% FCS, and the cells were scraped off from the culture flask every 3-4 days with a cell scraper (No. 3010, manufactured by Coaster), diluted 10-fold and maintained by subculture. In the experiment examining the effect of the test substance on the cell growth, the B16-F10 cells maintained in vitro by subculture were recovered with a cell scraper, suspended in MEM supplemented with 10% FCS at 2×10^5 cells/mL and added to a 96 well microtest plate (Becton Dickinson) at 1×10^4 cells/50 μL/well. Furthermore, 50 μL of a test substance at a 2-fold concentration of the final concentration was added to the well, and cultured in a CO2 incubator (MCO-175, SANYO Electric Co., Ltd.) at 37° C., 5% CO2 95% air for 72 hr.
# After culture, 10 mg/mL of MTT [(3-[4,5-Dimethylthiazol-2-yl]-2,5-diphenyl-tetrazolium bromide)] was added at 10 μL/well, which was followed by culture for 3 hr. Thereafter, 100 μL of 10% SDS (sodium dodecylsulfate)—0.01N HCl was added to dissolve the pigment and absorbance at 570 nm was measured with a multilabel counter (1420 ARVO SX, Pharmacia Biotech Corporation). According to the concentration of the test substance, each well was expressed by absorbance, and average value and standard error. Using the well, to which the medium alone was added, as a control, the growth inhibition rate was calculated according to the following formula. [formula] Analysis method: Based on the dose reaction curves of the inventive compound alone treatment group and cisplatin alone treatment group, the combination index (CI) of the action in concomitant use is calculated by median effect analysis (References and [2]). (Results)
compound,measurement,setting,value
"C[C@@H](N)c1ccc(C(=O)Nc2ccncc2)cc1.Cl [compound of the present invention, (R)-(+)-N-(4-pyridyl)-4-(1-aminoethyl)benzamide HCl]",T/C±standard error (average number of pulmonary metastatic colonies of administration group/control group ×100),"[1]; Table 1, compound 1 mg/kg oral administration once a day for 14 days, alone",77.1 ± 10.0%
same,T/C±standard error (average number of pulmonary metastatic colonies of administration group/control group ×100),"[1]; Table 1, compound 1 mg/kg oral once a day for 14 days in combination with cisplatin 5 mg/kg intraperitoneally once",13.4 ± 1.4%
same,T/C±standard error (average number of pulmonary metastatic colonies of administration group/control group ×100),"[1]; Table 1, compound 1 mg/kg oral once a day for 14 days in combination with cisplatin 10 mg/kg intraperitoneally once, p < 0.01 vs. cisplatin (10 mg/kg) alone",19.5 ± 3.0%
same,T/C±standard error (average number of pulmonary metastatic colonies of administration group/control group ×100),"[1]; Table 1, compound 3 mg/kg oral administration once a day for 14 days, alone",65.2 ± 3.7%
same,T/C±standard error (average number of pulmonary metastatic colonies of administration group/control group ×100),"[1]; Table 1, compound 3 mg/kg oral once a day for 14 days in combination with cisplatin 5 mg/kg intraperitoneally once",14.4 ± 2.0%
same,T/C±standard error (average number of pulmonary metastatic colonies of administration group/control group ×100),"[1]; Table 1, compound 3 mg/kg oral once a day for 14 days in combination with cisplatin 10 mg/kg intraperitoneally once, p < 0.01 vs. cisplatin (10 mg/kg) alone",16.5 ± 1.4%
same,T/C±standard error (average number of pulmonary metastatic colonies of administration group/control group ×100),"[1]; Table 2, compound 0.3 mg/kg by intraperitoneal osmotic pump (14 days), alone",73.4 ± 10.1%
same,T/C±standard error (average number of pulmonary metastatic colonies of administration group/control group ×100),"[1]; Table 2, compound 0.3 mg/kg by osmotic pump in combination with cisplatin 10 mg/kg intraperitoneally once",12.1 ± 2.1%
same,T/C±standard error (average number of pulmonary metastatic colonies of administration group/control group ×100),"[1]; Table 2, compound 1 mg/kg by intraperitoneal osmotic pump (14 days), alone",69.9 ± 7.7%
same,T/C±standard error (average number of pulmonary metastatic colonies of administration group/control group ×100),"[1]; Table 2, compound 1 mg/kg by osmotic pump in combination with cisplatin 10 mg/kg intraperitoneally once",13.0 ± 1.8%
same,T/C±standard error (average number of pulmonary metastatic colonies of administration group/control group ×100),"[1]; Table 2, compound 3 mg/kg by intraperitoneal osmotic pump (14 days), alone",63.5 ± 7.7%
same,T/C±standard error (average number of pulmonary metastatic colonies of administration group/control group ×100),"[1]; Table 2, compound 3 mg/kg by osmotic pump in combination with cisplatin 10 mg/kg intraperitoneally once, P < 0.05 vs. cisplatin (10 mg/kg) alone",11.1 ± 1.4%
same,T/C±standard error (average number of pulmonary metastatic colonies of administration group/control group ×100),"[1]; Table 4, compound 1 mg/kg oral administration once a day for 14 days, alone",83.4 ± 10.8%
same,T/C±standard error (average number of pulmonary metastatic colonies of administration group/control group ×100),"[1]; Table 4, compound 1 mg/kg oral in combination with etoposide 5 mg/kg intraperitoneally once a day for 5 days, P < 0.05 vs. etoposide (5 mg/kg) alone",22.0 ± 4.8%
same,T/C±standard error (average number of pulmonary metastatic colonies of administration group/control group ×100),"[1]; Table 4, compound 3 mg/kg oral administration once a day for 14 days, alone",70.5 ± 4.0%
same,T/C±standard error (average number of pulmonary metastatic colonies of administration group/control group ×100),"[1]; Table 4, compound 3 mg/kg oral in combination with etoposide 5 mg/kg intraperitoneally once a day for 5 days, P < 0.01 vs. etoposide (5 mg/kg) alone",19.2 ± 2.8%
same,T/C±standard error (average number of pulmonary metastatic colonies of administration group/control group ×100),"[1]; Table 5, compound 1 mg/kg oral administration once a day for 14 days, alone",69.8 ± 9.0%
same,T/C±standard error (average number of pulmonary metastatic colonies of administration group/control group ×100),"[1]; Table 5, compound 1 mg/kg oral in combination with paclitaxel 5 mg/kg intraperitoneally once every other day, P < 0.05 vs. paclitaxel (5 mg/kg) alone",20.6 ± 2.6%
same,T/C±standard error (average number of pulmonary metastatic colonies of administration group/control group ×100),"[1]; Table 5, compound 3 mg/kg oral administration once a day for 14 days, alone",59.0 ± 3.3%
same,T/C±standard error (average number of pulmonary metastatic colonies of administration group/control group ×100),"[1]; Table 5, compound 3 mg/kg oral in combination with paclitaxel 5 mg/kg intraperitoneally once every other day, P < 0.01 vs. paclitaxel (5 mg/kg) alone",16.3 ± 3.0%
same,number of pulmonary metastatic colonies of B16-F10 cells,"[1]; combination group with cisplatin as compared to the cisplatin alone administration group (p<0.01 or p<0.05, Dunnett's test)",significantly decreased
same,number of pulmonary metastatic colonies of B16-F10 cells,[1]; combination group with etoposide as compared to the etoposide alone administration group (p<0.01 or p<0.05 Dunnett's test),significantly decreased
same,number of pulmonary metastatic colonies of B16-F10 cells,[1]; combination group with paclitaxel as compared to the paclitaxel alone administration group (p<0.01 or p<0.05 Dunnett's test),significantly decreased
same,CI (Combination Index),[1]; compound 0.3 mg/kg osmotic pump + cisplatin 10 mg/kg,0.19
same,CI (Combination Index),[1]; compound 1 mg/kg oral + Etoposide (5 mg/kg),0.42
same,CI (Combination Index),[1]; compound 1 mg/kg oral + Paclitaxel (5 mg/kg),0.63
same,CI (Combination Index),[1]; compound 1 mg/kg oral administration + cisplatin 10 mg/kg,0.12
same,CI (Combination Index),[1]; compound 1 mg/kg osmotic pump + cisplatin 10 mg/kg,0.21
same,CI (Combination Index),[1]; compound 3 mg/kg oral + Etoposide (5 mg/kg),0.34
same,CI (Combination Index),[1]; compound 3 mg/kg oral + Paclitaxel (5 mg/kg),0.34
same,CI (Combination Index),[1]; compound 3 mg/kg oral administration + cisplatin 10 mg/kg,0.09
same,CI (Combination Index),[1]; compound 3 mg/kg osmotic pump + cisplatin 10 mg/kg,0.17
same,CI value of the action in concomitant use,"[1]; compound and cisplatin used in combination, every dose (Table 3)",lower than 1
same,combination index of the action in concomitant use,[1]; compound and etoposide used in combination (Table 6),lower than 1
same,combination index of the action in concomitant use,[1]; compound and paclitaxel used in combination (Table 6),lower than 1
same,CI (Combination Index),[2]; compound 0.3 μM + cisplatin 10 μM,0.4293
same,CI (Combination Index),[2]; compound 1 μM + cisplatin 10 μM,0.4656
same,CI (Combination Index),[2]; compound 3 μM + cisplatin 10 μM,0.4478
same,CI (Combination Index),[2]; compound 10 μM + cisplatin 10 μM,0.4403
same,CI (Combination Index),[2]; compound 30 μM + cisplatin 10 μM,0.5071
same,CI (Combination Index),[2]; compound 100 μM + cisplatin 10 μM,0.3558
same,average growth suppression rate ± standard error,"[2]; compound 0.1 (no unit in Table 7; μM in Table 8) alone, 72 hr culture",4.389 ± 3.094%
same,average growth suppression rate ± standard error,"[2]; compound 0.3 (no unit in Table 7; μM in Table 8) alone, 72 hr culture",5.196 ± 0.214%
same,average growth suppression rate ± standard error,"[2]; compound 0.3 in combination with cisplatin 10 μM, 72 hr, NS (p = 0.1293) vs. cisplatin (10 μM) alone",17.200 ± 11.245%
same,average growth suppression rate ± standard error,"[2]; compound 1 (no unit in Table 7; μM in Table 8) alone, 72 hr culture",7.877 ± 0.727%
same,average growth suppression rate ± standard error,"[2]; compound 1 in combination with cisplatin 10 μM, 72 hr, NS (P = 0.1236) vs. cisplatin (10 μM) alone",17.319 ± 4.397%
same,average growth suppression rate ± standard error,"[2]; compound 3 (no unit in Table 7; μM in Table 8) alone, 72 hr culture",10.012 ± 1.459%
same,average growth suppression rate ± standard error,"[2]; compound 3 in combination with cisplatin 10 μM, 72 hr, p = 0.0028 vs. cisplatin (10 μM) alone",26.406 ± 8.364%
same,average growth suppression rate ± standard error,"[2]; compound 10 (no unit in Table 7; μM in Table 8) alone, 72 hr culture",10.700 ± 0.365%
same,average growth suppression rate ± standard error,"[2]; compound 10 in combination with cisplatin 10 μM, 72 hr, p = 0.0000 vs. cisplatin (10 μM) alone",43.796 ± 5.446%
same,average growth suppression rate ± standard error,"[2]; compound 30 (no unit in Table 7; μM in Table 8) alone, 72 hr culture",22.657 ± 4.784%
same,average growth suppression rate ± standard error,"[2]; compound 30 in combination with cisplatin 10 μM, 72 hr, p = 0.0000 vs. cisplatin (10 μM) alone",90.320 ± 2.220%
same,average growth suppression rate ± standard error,"[2]; compound 100 (no unit in Table 7; μM in Table 8) alone, 72 hr culture",57.960 ± 8.575%
same,average growth suppression rate ± standard error,"[2]; compound 100 in combination with cisplatin 10 μM, 72 hr, p = 0.0000 vs. cisplatin (10 μM) alone",96.180 ± 0.164%
